The text below walks through data of US20250000783A1, “METHOD FOR HAIR CARE BY USING CASHEW TESTA EXTRACT” (TCI CO., LTD., priority 2023, published 2025).

The structures appear in SMILES notation.

Assay [1] concerns human hair follicle dermal papilla cells (HFDPC). The assay is described as follows: Antioxidant test for hair follicle cells (ROS, DCFH-DA, flow cytometry, H2O2 stimulation). In kind it is cell-based. The settings on record: 0.1 mM compound + 0.5 mM H2O2, read-out: ROS inhibition rate relative to control group G02. As to the method:
1. Cell strains: human hair follicle dermal papilla cells (HFDPC), which are purchased from PromoCell, with a cell number C-12071, and hereinafter referred to as HFDPC cells.
1. HFDPC cells were inoculated into a 6-well culture medium with 2 ml of cell culture medium in each well at the density of 1×10^5 cells, and cultured at 37° C. for 24 h. Therefore, the HFDPC cells were divided into three test groups which were blank group G01, control group G02 and experimental group, respectively.
2. After culture for 24 h, each group was changed as an experimental culture medium. Where, the experimental culture media in blank G01 and control group G02 were cell culture mediums without cashew testa extracts or compounds thereof. Subsequently, each group was treated at 34° C. for 1 h.
3. After treatment for 1 h, a DCFH-DA treatment reagent was added in each group so that the final concentration of each group was 5 μg/mL, and each group was treated at 37° C. for 15 min.
4. After treatment for 15 min, 100 mM of 5 μl/well H2O2 aqueous solution was added, and each group was treated at 34° C. for 0.5 h.
5. The treated experimental culture medium in each group was removed, and washed 2 times with 1× DPBS.
6. After washing, 500 μl of trypsin was added into each well for 5 min of photophobic reaction. After the reaction, the cell culture medium was added to terminate the reaction. After that, suspended cells and cell culture media in each well were collected into corresponding 1.5 ml micro-centrifuge tubes, and centrifuged for 5 min at 400×g to make cells in each centrifuge tube participated.
7. Supernatant in a centrifuge test tube for each group was removed, and the precipitate cells were washed with 1× DPBS once, and then centrifuged for 5 min at 400×g.
The supernatant in a centrifuge test tube for each group was removed again, and 200 μl of 1× DPBS was added into the centrifuge test tube for each group to resuspend the cells so as to form a cell suspension.
8. The excitation light parameter of flow cytometry was set as 450-490 nm, the scattered light parameter of flow cytometry was set as 510-550, and then the fluorescence signal of DCFH-DA in each group was detected by flow cytometry. After entering the HFDPC cells, DCFH-DA was […] into DCFH (dichlorodihydrofluorescein) and then oxidized into DCF (dichlorofluorescein) capable of emitting green fluorescence by reactive oxygen species (ROS), the fluorescence intensity of the HFDPC cells treated by DCFH-DA can reflect the content of ROS in […], so as to obtain the proportion of highly expressed ROS cells in FDPC cells accounting for the number of original cells.
The relative ROS generation amounts of all groups are calculated according to the following formula: ROS relative generation amount (%)=(green fluorescence signal in each group/green fluorescence signal in blank group G01)×100%.
Since the experiment was repeated for three times, the measurement results of experiment that was repeated for three times were averaged as an average value, and then statistically significant differences between rest results of control group G02 and other groups were obtained by student's t-test statistical analysis. In the figures, “*” represents that compared with control group G02, p is less than 0.05, “**” represents that compared with control group G02, p is less than 0.01, and “***” represents that compared with control group G02, p is less than 0.001.
Refer to FIG. 10. The cells in blank group G01 were neither treated with the cashew testa extract, nor stimulated by adding H2O2, and therefore the test results in blank group G01 represent the expression of cells under the condition of normal physiological metabolism, and the relative ROS generation amount of each group is as shown in FIG. 10. […]
Background: Flow cytometry measures light scatter and fluorescence of single cells or particles in a stream.

In a further assay the test system is HFDPC cells. The assay can be described thus: Test for promoting hair follicle cell proliferation (EdU, flow cytometry). The format is cell-based, human. As to conditions: 0.1 mM compound, 24 h; for relative hair follicle cell proliferation rate: blank group G01 = 100%. The method, then: 1. Assay kit: cell proliferation assay kit (Click-iT™ Plus EdU Flow Cytometry Assay Kits-Alexa Fluor™ 488 picolyl azide, 50 tests), which is purchased from Invitrogen, with a product number C10632.
1. HFDPC cells were inoculated into a 6-well culture medium at the density of 1×10^5 cells/well, and cultured under the conditions of 5% CO2 and 37° C. until 80%-90% of cell fullness were achieved.
2. After culture for 24 h, the content of DNA in each group was measured by using cell proliferation assay kit. Therefore, cells in each group were treated according to test procedures provided by the cell proliferation assay kit, then the excitation light parameter of flow cytometer was set as 450-490 nm, and the scattered light parameter of flow cytometer was set as 510-550 nm, and then EdU (5-ethynyl-2′-deoxyuridine) fluorescent signal of each group was detected by flow cytometer.
The proliferation rate of hair follicle cells in each group was based on the content of DNA in each group. The relative hair follicle cell proliferation rates of all groups are calculated according to the following formula: relative hair follicle cell proliferation rate (%)-(fluorescent signal of each group/fluorescent signal of blank group G01)×100%.
The statistically significant difference between test results of blank group G01 and other groups was obtained by student's t-test statistical analysis. In the figures, “*” represents that compared with blank group G01, p is less than 0.05, “**” represents that compared with blank group G01, p is less than 0.01, and “***” represents that compared with blank group G01, p is less than 0.001.

Regarding `O=C(O)c1ccc(O)c(O)c1` [protocatechuic acid, Protocatechuic acid], the inhibition (commonly how much of the control response was suppressed) at 100 µM in assay [1] stood at 99.4%. Further, in the assay with HFDPC cells, the “increase of relative hair follicle cell proliferation rate relative to blank group G01” value is given as ~9.6% and the “relative hair follicle cell proliferation rate” value was 109.6%.

On to `O=C(O[C@@H]1Cc2c(O)cc(O)cc2O[C@@H]1c1ccc(O)c(O)c1)c1cc(O)c(O)c(O)c1` [epicatechin gallate, Epicatechin gallate], for which the inhibition at 100 µM in assay [1] was found to be 96.9%. For the same molecule, the “relative hair follicle cell proliferation rate” value in the assay on HFDPC cells came to 89.9%.

For the molecule `Oc1cc(O)c2c(c1)O[C@H](c1cc(O)c(O)c(O)c1)[C@@H](O)C2` [gallocatechin, Gallocatechin], the inhibition at 100 µM in assay [1] turned out to be 90.8%. Also, the “relative hair follicle cell proliferation rate” value with HFDPC cells was found to be 93.5%.

In the case of `O=C(/C=C/c1ccc(O)cc1)O[C@@H]1Cc2c(O)cc(O)cc2O[C@@H]1c1ccc(O)c(O)c1` [epicatechin coumarin ester, Epicatechin coumarin ester], the inhibition at 100 µM in assay [1] amounted to 100%. In the assay on HFDPC cells, the “increase of relative hair follicle cell proliferation rate relative to blank group G01” value was “about 14.1%” and the “relative hair follicle cell proliferation rate” value was 114.1%.

Consider `Oc1cc(O)cc(O)c1` [phloroglucinol, Phloroglucinol], for which, in assay [1], the inhibition at 100 µM came out at 53.9%. Besides, in the assay with HFDPC cells, the “increase of relative hair follicle cell proliferation rate relative to blank group G01” value is on record as ~27.9%, the “proliferation effect compared with control group G02 (20% fetal bovine serum)” value was “superior to that of control group G02” and the “relative hair follicle cell proliferation rate” value was 127.9%.

Turning to `O=C(O)c1cc(O)c(O)c(O)c1` [gallic acid, Gallic acid], the inhibition at 100 µM in assay [1] turned out to be 80%. Moreover, the “relative hair follicle cell proliferation rate” value with HFDPC cells worked out at 83.7%.

Regarding `O=C(/C=C/c1ccc(O)cc1)OC[C@H]1O[C@@H](Oc2cc(O)c3c(c2)OC(c2ccc(O)cc2)CC3=O)[C@H](O)[C@@H](O)[C@@H]1O` (stereo partly drawn) [Naringenin 7-O-(6″-O-p-coumaryl)-β-D-glucoside], in assay [1], the inhibition at 100 µM came to 75.8%. In addition, in the assay with HFDPC cells, the “increase of relative hair follicle cell proliferation rate relative to blank group G01” value is recorded as ~25%, the “proliferation effect compared with control group G02 (20% fetal bovine serum)” value was “superior to that of control group G02” and the “relative hair follicle cell proliferation rate” value is recorded as 125%.
